Data on 23 compounds can be found in patent publication US20240025922A1, “TETRAHYDROPYRIDO[3,4-d]PYRIMIDINES AS HPK1 INHIBITORS” (Merck Patent GmbH, priority 2022, published 2024).

Like-named read-outs stand apart in the source and are kept apart here. A value given as a limit tells only on which side of the number the result lay.

Broadly, the IC50 is the concentration needed to halve the response being measured.

In assay [1] the target is HPK1 (SLP76 phosphorylation at Ser376 in Jurkat and EL-4 cells) (Homo sapiens, UniProt Q92918). Format: cell-based. A digest of the protocol:
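Phospho-SLP76 (Ser376) in lysates measured by AlphaLISA for human Jurkat and by 19 h HTRF for mouse EL-4, giving % inhibition and IC50. Compounds applied 60 min before αCD3/αCD28 bead stimulation at 37 °C, lasting 15 min (Jurkat) or 30 min (EL-4).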

The target in assay [2] is full-length human HPK1 (MAP4K1) (Homo sapiens (Human), UniProt Q92918). The assay is described as follows: HPK1 Kinase Assay (Biochemical Assay), ADP-Glo. As to conditions: GST-HPK1 3.2 nM, 10 μM ATP, MBP substrate, read-out: HPK1 enzymatic IC50. A digest of the protocol:
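ADP-Glo luminescence after a 120-min kinase reaction gave percent inhibition and IC50. The enzyme was Sf21-expressed N-terminal GST full-length human HPK1 at 3.2 nM in HEPES pH 7.5 buffer with MgCl2, DTT, Brij-35 and BSA.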
For orientation: ADP-Glo first removes unused ATP, then detects ADP through luciferase.

[3] abbreviates: αCD3/αCD28 Dynabeads stimulated cells, pSLP76 (Ser376) detection; read-out: HPK1 pSLP76 IC50.
Setting [4] is: read-out: HPK1 pSLP76 IC50; αCD3/αCD28 Dynabeads stimulated cells, pSLP76 (Ser376) detection.

Chain of HPK1 (SLP76 phosphorylation at Ser376 in Jurkat and EL-4 cells) (Q92918 whole entry, looked up): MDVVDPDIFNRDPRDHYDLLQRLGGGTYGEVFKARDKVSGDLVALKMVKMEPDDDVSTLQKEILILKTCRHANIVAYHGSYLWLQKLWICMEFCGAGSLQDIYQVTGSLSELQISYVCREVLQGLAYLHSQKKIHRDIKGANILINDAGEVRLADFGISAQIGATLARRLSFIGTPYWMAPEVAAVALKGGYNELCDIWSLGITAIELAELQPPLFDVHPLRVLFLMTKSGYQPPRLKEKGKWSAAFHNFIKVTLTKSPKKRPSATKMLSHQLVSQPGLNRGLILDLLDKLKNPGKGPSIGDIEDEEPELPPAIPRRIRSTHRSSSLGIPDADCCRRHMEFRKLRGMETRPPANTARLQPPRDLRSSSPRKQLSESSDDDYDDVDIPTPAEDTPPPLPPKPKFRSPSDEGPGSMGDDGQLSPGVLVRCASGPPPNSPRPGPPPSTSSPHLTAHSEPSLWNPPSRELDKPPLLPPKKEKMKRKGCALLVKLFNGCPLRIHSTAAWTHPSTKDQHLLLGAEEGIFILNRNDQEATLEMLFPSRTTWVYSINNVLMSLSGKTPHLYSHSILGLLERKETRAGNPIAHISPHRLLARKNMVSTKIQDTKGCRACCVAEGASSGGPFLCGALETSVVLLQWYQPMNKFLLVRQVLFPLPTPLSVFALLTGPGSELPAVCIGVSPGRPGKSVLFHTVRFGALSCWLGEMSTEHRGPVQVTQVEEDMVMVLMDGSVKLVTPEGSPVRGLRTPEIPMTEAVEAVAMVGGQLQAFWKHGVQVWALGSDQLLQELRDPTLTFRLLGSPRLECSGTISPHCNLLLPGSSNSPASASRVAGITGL
Chain of full-length human HPK1 (MAP4K1) (Q92918 whole entry): as the sequence (Q92918 whole entry, looked up) above

For the compound `Cc1c(N2CCc3cnc(Nc4ccc(NC(=O)CN(C)C)nc4)cc3C2)cnc2c1NCCO2` [Example 31, 2-(dimethylamino)-N-{5-[(6-{8-methyl-1H,2H,3H-pyrido[2,3-b][1,4]oxazin-7-yl}-5,6,7,8-tetrahydro-2,6-naphthyridin-3-yl)amino]pyridin-2-yl}acetamide], the figures for the IC50 in assay [1] (setting [3]) and in assay [2] were above 1000 nM and below 100 nM, respectively.

As to `COCCOc1ccc(Nc2ncc3c(n2)CN(c2cnc4c(c2C)NCCO4)CC3)cc1CO` [Example 83, (2-(2-methoxyethoxy)-5-((7-(8-methyl-2,3-dihydro-1H-pyrido[2,3-b][1,4]oxazin-7-yl)-5,6,7,8-tetrahydropyrido[3,4-d]pyrimidin-2-yl)amino)phenyl)methanol], the IC50 was 500 to 1000 nM in assay [1] (setting [3]) and below 100 nM in assay [2].

Turning to `Cc1c(N2CCc3cnc(Nc4ccc(CC(=O)N5CCC5)cc4)nc3C2)cnc2c1NCCO2` [Example 163, 1-(azetidin-1-yl)-2-(4-((7-(8-methyl-2,3-dihydro-1H-pyrido[2,3-b][1,4]oxazin-7-yl)-5,6,7,8-tetrahydropyrido[3,4-d]pyrimidin-2-yl)amino)phenyl)ethan-1-one], the IC50 in assay [1] (setting [3]) was below 500 nM; in assay [2], below 100 nM.

As to `Cc1c(N2CCc3cnc(Nc4cccc(CS(C)(=O)=O)c4)nc3C2)cnc2c1NCCO2` [Example 50, 7-(8-methyl-2,3-dihydro-1H-pyrido[2,3-b][1,4]oxazin-7-yl)-N-(3-((methylsulfonyl)methyl)phenyl)-5,6,7,8-tetrahydropyrido[3,4-d]pyrimidin-2-amine], the IC50 in assay [1] (setting [3]) was below 500 nM; in assay [2] it was below 100 nM.

On to `Cc1c(N2CCc3cnc(Nc4ccc(CS(C)(=O)=O)cc4)nc3C2)cnc2nc[nH]c12` [Example 171, N-[4-(methanesulfonylmethyl)phenyl]-7-{7-methyl-1H-imidazo[4,5-b]pyridin-6-yl}-5H,6H,7H,8H-pyrido[3,4-d]pyrimidin-2-amine], for which the IC50 is 500 to 1000 nM in assay [1] (setting [4]) and below 100 nM in assay [2].

As to `Cc1cc(Nc2cc3c(cn2)CCN(c2cnc4c(c2Cl)NCCO4)C3)ccc1NC(=O)CN1CCC1` [Example 2, 2-(azetidin-1-yl)-N-{4-[(6-{8-chloro-1H,2H,3H-pyrido[2,3-b][1,4]oxazin-7-yl}-5,6,7,8-tetrahydro-2,6-naphthyridin-3-yl)amino]-2-methylphenyl}acetamide], the results for the IC50 in assay [1] (setting [3]) and in assay [2] were below 500 nM and below 100 nM, respectively.

`Cc1c(N2CCc3cnc(Nc4ccc(CS(C)(=O)=O)cc4)nc3C2)cnc2c1NCCC2O` (stereo not shown) [Example 143, 7-(2-{[4-(methanesulfonylmethyl)phenyl]amino}-5H,6H,7H,8H-pyrido[3,4-d]pyrimidin-7-yl)-8-methyl-1,2,3,4-tetrahydro-1,5-naphthyridin-4-ol]: the IC50 in assay [1] (setting [3]) is below 500 nM; in assay [2] it was below 100 nM.

Take `Cc1c(N2CCc3cnc(Nc4ccc(CC(=O)N5CC(F)C5)cc4)nc3C2)cnc2c1NCCO2` [Example 155, 1-(3-fluoroazetidin-1-yl)-2-{4-[(7-{8-methyl-1H,2H,3H-pyrido[2,3-b][1,4]oxazin-7-yl}-5H,6H,7H,8H-pyrido[3,4-d]pyrimidin-2-yl)amino]phenyl}ethan-1-one]: the half-inhibitory concentration (IC50) was below 500 nM in assay [1] (setting [3]) and below 100 nM in assay [2].

In the case of `Cc1ccncc1N1CCc2cnc(Nc3cnc4c(c3)CN(C)CC4)nc2C1` [Example 118, N-(6-methyl-5,6,7,8-tetrahydro-1,6-naphthyridin-3-yl)-7-(4-methylpyridin-3-yl)-5,6,7,8-tetrahydropyrido[3,4-d]pyrimidin-2-amine], the IC50 in assay [1] (setting [3]) was above 1000 nM; in assay [2] it was below 100 nM.

As to `Cc1c(N2CCc3cnc(Nc4cc5n(n4)CC(=O)N(CC(F)F)CC5)cc3C2)cnc2c1NCCO2` [Example 140, 6-(2,2-difluoroethyl)-2-[(6-{8-methyl-1H,2H,3H-pyrido[2,3-b][1,4]oxazin-7-yl}-5,6,7,8-tetrahydro-2,6-naphthyridin-3-yl)amino]-4H,5H,6H,7H,8H-pyrazolo[1,5-d][1,4]diazepin-7-one], the results for the IC50 in assay [1] (setting [3]) and in assay [2] were below 500 nM and below 100 nM, respectively.

Take `Cc1c(N2CCc3cnc(Nc4ccc(NC(=O)CN(C)C)nc4)nc3C2)cnc2c1NCCO2` [Example 56, 2-(dimethylamino)-N-(5-((7-(8-methyl-2,3-dihydro-1H-pyrido[2,3-b][1,4]oxazin-7-yl)-5,6,7,8-tetrahydropyrido[3,4-d]pyrimidin-2-yl)amino)pyridin-2-yl)acetamide]: the concentration for half-maximal inhibition (IC50) in assay [1] (setting [4]) was below 500 nM; in assay [2], below 100 nM.

As for `Cc1c(N2CCc3cnc(Nc4ccc5c(c4)CN(C)C5)cc3C2)cnc2c1NCCO2` [Example 47, 6-{8-methyl-1H,2H,3H-pyrido[2,3-b][1,4]oxazin-7-yl}-N-(2-methyl-2,3-dihydro-1H-isoindol-5-yl)-5,6,7,8-tetrahydro-2,6-naphthyridin-3-amine], the IC50 in assay [1] (setting [3]) was 500 to 1000 nM; in assay [2], below 100 nM.

On to `Cc1cc(Nc2ncc3c(n2)CN(c2cnc4c(c2C)NCCO4)CC3)ccc1NC(=O)CN1CCOCC1` [Example 48, N-{2-methyl-4-[(7-{8-methyl-1H,2H,3H-pyrido[2,3-b][1,4]oxazin-7-yl}-5H,6H,7H,8H-pyrido[3,4-d]pyrimidin-2-yl)amino]phenyl}-2-(morpholin-4-yl)acetamide], for which the IC50 is below 500 nM in assay [1] (setting [3]) and below 100 nM in assay [2].

`COCCNC(=O)c1ccc(Nc2ncc3c(n2)CN(c2cnc4c(c2C)NCCO4)CC3)cc1` [Example 44, N-(2-methoxyethyl)-4-[(7-{8-methyl-1H,2H,3H-pyrido[2,3-b][1,4]oxazin-7-yl}-5H,6H,7H,8H-pyrido[3,4-d]pyrimidin-2-yl)amino]benzamide]: the IC50 in assay [1] (setting [3]) is below 500 nM; in assay [2] it was below 100 nM.

`CCc1cc(Nc2ncc3c(n2)CN(c2cnc4c(c2C)NCCO4)CC3)ccc1N1CCC(O)CC1` [Example 80, 1-(2-ethyl-4-((7-(8-methyl-2,3-dihydro-1H-pyrido[2,3-b][1,4]oxazin-7-yl)-5,6,7,8-tetrahydropyrido[3,4-d]pyrimidin-2-yl)amino)phenyl)piperidin-4-ol]: the IC50 in assay [1] (setting [3]) is 500 to 1000 nM; in assay [2], below 100 nM.

`Cc1cc(Nc2ncc3c(n2)CN(c2cnc4c(c2C)NCCO4)CC3)cnc1CS(C)(=O)=O` [Example 21, 6-(methanesulfonylmethyl)-5-methyl-N-(7-{8-methyl-1H,2H,3H-pyrido[2,3-b][1,4]oxazin-7-yl}-5H,6H,7H,8H-pyrido[3,4-d]pyrimidin-2-yl)pyridin-3-amine]: the IC50 in assay [1] (setting [3]) was 500 to 1000 nM; in assay [2], below 100 nM.

As for `Cc1c(N2CCc3cnc(Nc4ccc(CC(=O)N5CC(C)(O)C5)cc4)nc3C2)cnc2c1NCCO2` [Example 173, 1-(3-hydroxy-3-methylazetidin-1-yl)-2-{4-[(7-{8-methyl-1H,2H,3H-pyrido[2,3-b][1,4]oxazin-7-yl}-5H,6H,7H,8H-pyrido[3,4-d]pyrimidin-2-yl)amino]phenyl}ethan-1-one], the IC50 in assay [1] (setting [3]) is below 500 nM; in assay [2] it was below 100 nM.

Take `Cc1c(N)cncc1N1CCc2cnc(Nc3cnc4c(c3)CN(C)CC4)nc2C1` [Example 116, 7-(5-amino-4-methylpyridin-3-yl)-N-(6-methyl-5,6,7,8-tetrahydro-1,6-naphthyridin-3-yl)-5,6,7,8-tetrahydropyrido[3,4-d]pyrimidin-2-amine]: the IC50 in assay [1] (setting [3]) is above 1000 nM; in assay [2], below 100 nM.

With `CN1CCc2cc(Nc3cc4c(cn3)CCN(c3cnc5c(c3Cl)NCCO5)C4)nn2CC1=O` [Example 37, 2-[(6-{8-chloro-1H,2H,3H-pyrido[2,3-b][1,4]oxazin-7-yl}-5,6,7,8-tetrahydro-2,6-naphthyridin-3-yl)amino]-6-methyl-4H,5H,6H,7H,8H-pyrazolo[1,5-d][1,4]diazepin-7-one], the IC50 in assay [1] (setting [3]) is 500 to 1000 nM; in assay [2], below 100 nM.

As for `Cc1c(N2CCc3cnc(Nc4ccc(C5CCN(C)CC5)cc4)nc3C2)cnc2c1NCCO2` [Example 100, 7-(8-methyl-2,3-dihydro-1H-pyrido[2,3-b][1,4]oxazin-7-yl)-N-(4-(1-methylpiperidin-4-yl)phenyl)-5,6,7,8-tetrahydropyrido[3,4-d]pyrimidin-2-amine], the IC50 was 500 to 1000 nM in assay [1] (setting [3]) and below 100 nM in assay [2].

As for `Cc1c(N2CCc3cnc(Nc4ccc(NC(=O)CN5CCOCC5)c(C(F)(F)F)c4)nc3C2)cnc2c1NCCO2` [Example 29, N-{4-[(7-{8-methyl-1H,2H,3H-pyrido[2,3-b][1,4]oxazin-7-yl}-5H,6H,7H,8H-pyrido[3,4-d]pyrimidin-2-yl)amino]-2-(trifluoromethyl)phenyl}-2-(morpholin-4-yl)acetamide], the results for the IC50 in assay [1] (setting [3]) and in assay [2] were below 500 nM and below 100 nM, respectively.

Consider `CS(=O)(=O)Cc1ccc(Nc2ncc3c(n2)CN(c2cnc4c(c2Cl)NCCO4)CC3)cc1` [Example 63, 7-{8-chloro-1H,2H,3H-pyrido[2,3-b][1,4]oxazin-7-yl}-N-[4-(methanesulfonylmethyl)phenyl]-5H,6H,7H,8H-pyrido[3,4-d]pyrimidin-2-amine], for which the results for the half-inhibitory concentration (IC50) in assay [1] (setting [3]) and in assay [2] were below 500 nM and below 100 nM, respectively.

Regarding `Cc1c(N2CCc3cnc(Nc4ccnc(C5CCOCC5)c4)nc3C2)cnc2c1NCCO2` [Example 76, 7-(8-methyl-2,3-dihydro-1H-pyrido[2,3-b][1,4]oxazin-7-yl)-N-(2-(tetrahydro-2H-pyran-4-yl)pyridin-4-yl)-5,6,7,8-tetrahydropyrido[3,4-d]pyrimidin-2-amine], the figures for the half-maximal inhibitory concentration (IC50) in assay [1] (setting [3]) and in assay [2] were below 500 nM and below 100 nM, respectively.
